# Assay results: US20100197602A1, “USE OF FOLLICULAR GONADOTROPIN RELEASING PEPTIDE AS A THERAPEUTIC AGENT IN THE TREATMENT OF STREPTOCOCCUS PNEUMONIAE INFECTION” (priority 2007, published 2010)
# Residues, ends and D or L forms follow the SMILES beside them.
# Tested on: drug-resistant Mycobacterium tuberculosis
# Conditions: drug-resistant Mycobacterium tuberculosis (PAS, streptomycin, INH); peptide 10 micrograms per ml; seven days
structure (smiles),measurement,value
"C[C@@H](O)[C@H](N)C(=O)N[C@@H](CC(=O)O)C(=O)N[C@H](C(=O)N[C@@H](CO)C(=O)N[C@@H](Cc1c[nH]cn1)C(=O)N[C@@H](Cc1c[nH]cn1)C(=O)N[C@@H](CC(=O)O)C(=O)N[C@@H](CCC(N)=O)C(=O)N[C@@H](CC(=O)O)C(=O)N[C@@H](Cc1c[nH]cn1)C(=O)N1CCC[C@H]1C(=O)N[C@H](C(=O)N[C@@H](Cc1ccccc1)C(=O)N[C@@H](CC(N)=O)C(=O)O)[C@@H](C)O)[C@@H](C)O [FGRP, Thr-Asp-Thr-Ser-His-His-Asp-Gln-Asp-His-Pro-Thr-Phe-Asn-OH] (H-TDTSHHDQDHPTFN-OH)",% inhibition,0.0%
